Assays:
JAK1 = target: T1, JAK1 (Homo sapiens, UniProt P23458); test: JAK Family Selectivity Assay: JAK1 vs JAK2 binding affinity; settings: Kd JAK1 over Kd JAK2
T1 construct: made in house; host or cells: T7 phage in BL21-derived E. coli or HEK-293 cells
Procedure: Provided compounds are evaluated for selectivity by comparing their JAK2 binding affinity (Kd) in the above JAK2 Binding Assay with their binding affinity (Kd) for one or more other kinases. Binding affinity for other kinases is determined as follows: Kinase-tagged T7 phage strains are prepared in an E. coli host derived from the BL21 strain. E. coli are grown to log-phase and infected with T7 phage and incubated with shaking at 32° C. until lysis. The lysates are centrifuged and filtered to remove cell debris. The remaining kinases are produced in HEK-293 cells and subsequently tagged with DNA for qPCR detection. Streptavidin-coated magnetic beads are treated with biotinylated small molecule ligands for 30 minutes at room temperature to generate affinity resins for kinase assays. The liganded beads are blocked with excess biotin and washed with blocking buffer (SeaBlock (Pierce), 1% BSA, 0.05% Tween 20, 1 mM DTT) to remove unbound ligand and to reduce non-specific binding. Binding reactions are assembled by combining kinases, liganded affinity beads, and test compounds in 1× binding buffer (20% SeaBlock, 0.17×PBS, 0.05% Tween 20, 6 mM DTT). Test compounds are prepared as 111× stocks in 100% DMSO. Kds are determined using an 11-point 3-fold compound dilution series with three DMSO control points. All compounds for Kd measurements are distributed by acoustic transfer (non-contact dispensing) in 100% DMSO. The compounds are then diluted directly into the assays such that the final concentration of DMSO is 0.9%. All reactions are performed in polypropylene 384-well plate. Each has a final volume of 0.02 ml. The assay plates are incubated at room temperature with shaking for 1 hour and the affinity beads are washed with wash buffer (1×PBS, 0.05% Tween 20). The beads are then re-suspended in elution buffer (1× PBS, 0.05% Tween 20, 0.5 μM non-biotinylated affinity ligand) and incubated at room temperature with shaking for 30 minutes. The kinase concentration in the eluates is measured by qPCR. […] In some embodiments, provided compounds may be JAK2-selective over one or more of the following kinases: JAK1, JAK3, and Tyk2.

Caco2 Permeability Assay = format: in vitro ADME; settings: human; for efflux ratio at 2 h, 5 μM: pH 7.4, Caco-2, 5 μM, read-out: Efflux Ratio (ER); for Papp A→B at 2 h, 5 μM: pH 7.4, Caco-2, apical to basolateral
Procedure: Preparation of Caco-2 Cells: 50 μL and 25 mL of cell culture medium are added to each well of a Transwell® insert and reservoir, respectively. Then, the HTS Transwell® plates are incubated at 37° C., 5% CO2 for 1 hour before cell seeding. Caco-2 cell cells are diluted to 6.86×10^5 cells/mL with culture medium, and 50 μL of cell suspension are dispensed into the filter well of the 96-well HTS Transwell® plate. Cells are cultivated for 14-18 days in a cell culture incubator at 37° C., 5% CO2, 95% relative humidity. Cell culture medium is replaced every other day, beginning no later than 24 hours after initial plating.
Preparation of Stock Solutions: 10 mM stock solutions of test compounds are prepared in DMSO. The stock solutions of positive controls are prepared in DMSO at the concentration of 10 mM. Digoxin and propranolol are used as control compounds in this assay.
Assessment of Cell Monolayer Integrity: Medium is removed from the reservoir and each Transwell® insert and is replaced with prewarmed fresh culture medium. Transepithelial electrical resistance (TEER) across the monolayer is measured using Millicell Epithelial Volt-Ohm measuring system (Millipore, USA). The Plate is returned to the incubator once the measurement is done. The TEER value is calculated according to the following equation: TEER measurement (ohms)×Area of membrane (cm^2)=TEER value (ohm⋅cm^2). A TEER value greater than 230 ohm⋅cm^2 indicates a well-qualified Caco-2 monolayer.
Assay Procedure: The Caco-2 plate is removed from the incubator and washed twice with pre-warmed HBSS (10 mM HEPES, pH 7.4), and then incubated at 37° C. for 30 minutes. The stock solutions of control compounds are diluted in DMSO to get 1 mM solutions and then diluted with HBSS (10 mM HEPES, pH 7.4) to get 5 μM working solutions. The stock solutions of the test compounds are diluted in DMSO to get 1 mM solutions and then diluted with HBSS (10 mM HEPES and 4% BSA, pH 7.4) to get 5 μM working solutions. The final concentration of DMSO in the incubation system is 0.5%. To determine the rate of drug transport in the apical to basolateral direction. 75 μL of 5 μM working solutions of test compounds are added to the Transwell® insert (apical compartment) and the wells in the receiver plate (basolateral compartment) are filled with 235 μL of HBSS (10 mM HEPES and 4% BSA, pH 7.4). To determine the rate of drug transport in the basolateral to apical direction, 235 μL of 5 μM working solutions of test compounds are added to the receiver plate wells (basolateral compartment) and then the Transwell® inserts (apical compartment) are filled with 75 μL of HBSS (10 mM HEPES and 4% BSA, pH 7.4). Time 0 samples are prepared by transferring 50 μL of 5 μM working solution to wells of the 96-deepwell plate, followed by the addition of 200 μL cold methanol containing appropriate internal standards (IS). The plates are incubated at 37° C. for 2 hours. At the end of the incubation, 50 μL samples from donor sides (apical compartment for Ap→*Bl flux, and basolateral compartment for Bl→Ap) and receiver sides (basolateral compartment for Ap→Bl flux, and apical compartment for Bl→Ap) are transferred to wells of a new 96-well plate, followed by the addition of 4 volume of cold acetonitrile or methanol containing appropriate internal standards (IS). Samples are vortexed for 5 minutes and then centrifuged at 3,220 g for 40 minutes. An aliquot of 100 μL of the supernatant is mixed with an appropriate volume of ultra-pure water before LC-MS/MS analysis. To determine the Lucifer Yellow leakage after 2 hour transport period, stock solution of Lucifer yellow is prepared in ultra-pure water and diluted with HBSS (10 mM HEPES, pH 7.4) to reach the final concentration of 100 μM. 100 μL of the Lucifer yellow solution is added to each Transwell® insert (apical compartment), followed by filling the wells in the receiver plate (basolateral compartment) with 300 μL of HBSS (10 mM HEPES, pH 7.4). […]

T1 sequence (P23458 whole entry): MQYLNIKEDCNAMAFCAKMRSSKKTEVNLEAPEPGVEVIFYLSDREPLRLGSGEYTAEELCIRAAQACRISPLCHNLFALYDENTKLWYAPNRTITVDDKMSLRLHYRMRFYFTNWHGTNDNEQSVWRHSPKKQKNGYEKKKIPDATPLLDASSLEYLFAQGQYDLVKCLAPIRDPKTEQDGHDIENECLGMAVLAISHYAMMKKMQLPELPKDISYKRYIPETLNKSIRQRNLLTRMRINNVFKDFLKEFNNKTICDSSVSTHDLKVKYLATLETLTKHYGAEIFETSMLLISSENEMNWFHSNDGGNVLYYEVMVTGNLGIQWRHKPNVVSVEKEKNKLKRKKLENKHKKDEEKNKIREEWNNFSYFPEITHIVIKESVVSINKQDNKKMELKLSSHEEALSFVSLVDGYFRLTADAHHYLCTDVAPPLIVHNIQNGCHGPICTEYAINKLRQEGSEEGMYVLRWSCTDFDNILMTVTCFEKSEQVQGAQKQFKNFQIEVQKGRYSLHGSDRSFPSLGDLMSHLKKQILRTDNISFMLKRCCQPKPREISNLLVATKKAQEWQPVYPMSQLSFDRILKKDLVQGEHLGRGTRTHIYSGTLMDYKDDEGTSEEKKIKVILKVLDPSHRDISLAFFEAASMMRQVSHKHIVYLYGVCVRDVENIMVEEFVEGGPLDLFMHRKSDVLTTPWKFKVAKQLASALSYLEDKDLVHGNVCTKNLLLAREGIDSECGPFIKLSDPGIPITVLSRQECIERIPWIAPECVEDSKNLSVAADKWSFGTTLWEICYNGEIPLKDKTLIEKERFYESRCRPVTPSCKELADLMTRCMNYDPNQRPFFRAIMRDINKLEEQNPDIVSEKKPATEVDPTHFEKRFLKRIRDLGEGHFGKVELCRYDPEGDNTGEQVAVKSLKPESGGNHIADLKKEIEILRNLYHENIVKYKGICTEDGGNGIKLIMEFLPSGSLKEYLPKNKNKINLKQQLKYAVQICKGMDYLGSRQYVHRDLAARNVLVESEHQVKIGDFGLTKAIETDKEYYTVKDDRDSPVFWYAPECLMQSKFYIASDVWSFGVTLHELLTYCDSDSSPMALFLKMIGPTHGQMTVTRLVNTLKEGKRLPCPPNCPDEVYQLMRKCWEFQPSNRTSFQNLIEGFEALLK

| SMILES | JAK1/JAK2 Kd/Kd ratio (JAK1) | efflux ratio at 2 h, 5 μM (Caco2 Permeability Assay) | Papp A→B at 2 h, 5 μM (Caco2 Permeability Assay) [×10⁻⁶ cm/s] |
| --- | --- | --- | --- |
| CO[C@@H]1CCN(C(=O)Nc2cc(Oc3cnc4nc(Nc5cc6n(n5)CCC65CCC5)n(C)c4c3C#N)ccn2)C1 [Example I-60, (R)-N-(4-((7-cyano-2-((5′,6′-dihydrospiro[cyclobutane-1,4′-pyrrolo[1,2-b]pyrazol]-2′-yl)amino)-1-methyl-1H-imidazo[4,5-b]pyridin-6-yl)oxy)pyridin-2-yl)-3-methoxypyrrolidine-1-carboxamide] | B (Kd/Kd ratio <1000 and ≥300) | ≤ 2 | 6 |
| COC1CN(C(=O)Nc2cc(Oc3cnc4nc(Nc5cc6n(n5)CCC65CCC5)n(C)c4c3C#N)ccn2)C1 [Example I-61, N-(4-((7-cyano-2-((5′,6′-dihydrospiro[cyclobutane-1,4′-pyrrolo[1,2-b]pyrazol]-2′-yl)amino)-1-methyl-1H-imidazo[4,5-b]pyridin-6-yl)oxy)pyridin-2-yl)-3-methoxyazetidine carboxamide] | A (Kd/Kd ratio ≥1000) | 2 to 5 | 3 |
| COCCOC(=O)Nc1cc(Oc2cnc3nc(Nc4cc5n(n4)CCC54CCC4)n(C)c3c2C#N)ccn1 [Example I-62, 2-methoxyethyl(4-((7-cyano-2-((5′,6′-dihydrospiro[cyclobutane-1,4′-pyrrolo[1,2-b]pyrazol]-2′-yl)amino)-1-methyl-1H-imidazo[4,5-b]pyridin-6-yl)oxy)pyridin-2-yl)carbamate] | B (Kd/Kd ratio <1000 and ≥300) | ≤ 2 | 5 |
| COCC(=O)Nc1cc(Oc2cnc3nc(Nc4cc(C(F)(F)F)cn(C)c4=O)n(C)c3c2Cl)ccn1 [Example I-75, N-(4-((7-chloro-1-methyl-2-((1-methyl-2-oxo-5-(trifluoromethyl)-1,2-dihydropyridin-3-yl)amino)-1H-imidazo[4,5-b]pyridin-6-yl)oxy)pyridin-2-yl)-2-methoxyacetamide] | A (Kd/Kd ratio ≥1000) | ≤ 2 | 12 |
| COCC(=O)Nc1cc(Oc2cnc3nc(Nc4cc(C(F)(F)F)cn(C)c4=O)n(C)c3c2C#N)ccn1 [Example I-79, N-(4-((7-cyano-1-methyl-2-((1-methyl-2-oxo-5-(trifluoromethyl)-1,2-dihydropyridin-3-yl)amino)-1H-imidazo[4,5-b]pyridin-6-yl)oxy)pyridin-2-yl)-2-methoxyacetamide] | C (Kd/Kd ratio <300 and ≥100) | ≤ 2 | 15 |
| CC(=O)Nc1cc(Oc2cnc3nc(Nc4cc(C(F)(F)F)cn(C)c4=O)n(C)c3c2Cl)c(F)cn1 [Example I-88, N-(4-((7-chloro-1-methyl-2-((1-methyl-2-oxo-5-(trifluoromethyl)-1,2-dihydropyridin-3-yl)amino)-1H-imidazo[4,5-b]pyridin-6-yl)oxy)-5-fluoropyridin-2-yl)acetamide] | B (Kd/Kd ratio <1000 and ≥300) | ≤ 2 | 5 |
| Cn1c(Nc2cc3n(n2)CCC32CCC2)nc2ncc(Oc3ccnc(NC(=O)C4CC4)c3)c(C#N)c21 [Example I-122, N-(4-((7-cyano-2-((5′,6′-dihydrospiro[cyclobutane-1,4′-pyrrolo[1,2-b]pyrazol]-2′-yl)amino)-1-methyl-1H-imidazo[4,5-b]pyridin-6-yl)oxy)pyridin-2-yl)cyclopropanecarboxamide] | D (Kd/Kd ratio <100) | 2 to 5 | 2 |
| CCN1CCN(Cc2ccc(Nc3nc4ccc(Oc5ccnc(NC(C)=O)c5)cc4n3C)cc2C(F)(F)F)CC1 [Example R-1, reference compound] | C (Kd/Kd ratio <300 and ≥100) | 10 to 30 | 0.4 |

— patent US11970494B2, “6-heteroaryloxy benzimidazoles and azabenzimidazoles as JAK2 inhibitors” (Ajax Therapeutics, Inc., priority 2021, dated 2024)
